Experiment [1] has as its target T1, SARS-CoV-2 PLpro (nsp3 1564–1878) (Severe acute respiratory syndrome coronavirus 2, UniProt P0DTD1). The experiment can be described thus: biochemical. The arrangement: FRET-quenched peptide (Pro3) cleavage by PLpro, 10 min pre-incubation, slope over 20 min, normalised to no-compound control. Conditions: read-out: % of control remaining.
Experiment [2] has as its target T1, SARS-CoV-2 PLpro (nsp3 1564–1878). The experiment in a line: biochemical. The conditions noted are these: read-out: % of control remaining. More on the design: FRET-quenched peptide (Pro3) cleavage by PLpro, 10 min pre-incubation, slope over 20 min, normalised to no-compound control. This is another data set of the same source.

Structures can show the parent of a compound that is named as a salt. Where two headings read alike, the source gives them in different places.

For `CC1=C(/C=C/C(C)=C/C=C/C(C)=C\C(=O)O)C(C)(C)CCC1` [Isotretinoin], in experiment [1] (Well no.=6303, low concentration screen), the remaining activity at 1.25 µM is 108%. Further, the remaining activity at 3.75 µM in experiment [2] (Well no.=6303, high concentration screen) is 108%.
Take `CC(C)CC(N)=O` [Isovaleramide]: the remaining activity at 1.25 µM in experiment [1] (Well no.=8346, low concentration screen) worked out at 89.1%. Moreover, the remaining activity at 3.75 µM in experiment [2] (Well no.=8346, high concentration screen) is 81.6%.
Take `O=c1cc(-c2ccc(O)cc2)oc2cc(O)c([C@@H]3O[C@H](CO)[C@@H](O)[C@H](O)[C@H]3O)c(O)c12` [Isovitexin]: in experiment [1] (Well no.=3301, low concentration screen), the remaining activity at 1.25 µM was 99.2%. Besides, the remaining activity at 3.75 µM in experiment [2] (Well no.=3301, high concentration screen) amounted to 98.6%.
For `Nc1nc2[nH]c(=O)cnc2c(=O)[nH]1` [Isoxanthopterin], the remaining activity at 1.25 µM in experiment [1] (Well no.=1109, low concentration screen) is 96.8%. Besides, in experiment [2] (Well no.=1109, high concentration screen), the remaining activity at 3.75 µM amounted to 100%.
In the case of `Cc1ccc(C(=O)N(CCCN)[C@@H](c2nc3cc(Cl)ccc3c(=O)n2Cc2ccccc2)C(C)C)cc1` [Ispinesib (SB-715992)], the remaining activity at 1.25 µM in experiment [1] (Well no.=5243, low concentration screen) was found to be 94.6%. Moreover, the remaining activity at 3.75 µM in experiment [2] (Well no.=5243, high concentration screen) is 92.3%.
Take `CCn1c(=O)c2c(nc(/C=C/c3ccc(OC)c(OC)c3)n2C)n(CC)c1=O` [Istradefylline (KW-6002)]: the remaining activity at 1.25 µM in experiment [1] (Well no.=5121, low concentration screen) was determined as 106%. For the same compound, in experiment [2] (Well no.=5121, high concentration screen), the remaining activity at 3.75 µM was 110%.
In the case of `CCn1c(=O)c2c(nc(/C=C/c3ccc(OC)c(OC)c3)n2C)n(CC)c1=O` [Istradefylline], the remaining activity at 1.25 µM in experiment [1] (Well no.=6903, low concentration screen) is 98.1%; in experiment [1] (Well no.=8461, low concentration screen), 109%. Besides, the remaining activity at 3.75 µM came out at 99.6% in experiment [2] (Well no.=6903, high concentration screen) and 101% in experiment [2] (Well no.=8461, high concentration screen).
In the case of `COc1ccc(C(=O)NCc2ccc(OCCN(C)C)cc2)cc1OC` [Itopride], the remaining activity at 1.25 µM in experiment [1] (Well no.=2226, low concentration screen) was determined as 87.9%. In addition, in experiment [2] (Well no.=2226, high concentration screen), the remaining activity at 3.75 µM was 88.2%.
Consider `COc1cc2c(cc1OC)CC(=O)N(CCCN(C)C[C@H]1Cc3cc(OC)c(OC)cc31)CC2` [Ivabradine (hydrochloride)], for which, in experiment [1] (Well no.=7625, low concentration screen), the remaining activity at 1.25 µM was 99.3%. Also, in experiment [2] (Well no.=7625, high concentration screen), the remaining activity at 3.75 µM is 94.7%.
On to `COc1cc2c(cc1OC)CC(=O)N(CCCN(C)C[C@H]1Cc3cc(OC)c(OC)cc31)CC2` [Ivabradine hydrochloride], for which the remaining activity at 1.25 µM in experiment [1] (Well no.=5419, low concentration screen) amounted to 104%. The remaining activity at 3.75 µM in experiment [2] (Well no.=5419, high concentration screen) came out at 106%.
In the case of `CC(C)(C)c1cc(C(C)(C)C)c(NC(=O)c2c[nH]c3ccccc3c2=O)cc1O` [Ivacaftor (VX-770)], in experiment [1] (Well no.=5055, low concentration screen), the remaining activity at 1.25 µM turned out to be 105%. Moreover, in experiment [2] (Well no.=5055, high concentration screen), the remaining activity at 3.75 µM was 102%.
Take `N#Cc1ccnc(N2C(=O)CC[C@H]2C(=O)N(c2cncc(F)c2)[C@H](C(=O)NC2CC(F)(F)C2)c2ccccc2Cl)c1` [Ivosidenib (AG-120)]: in experiment [1] (Well no.=8630, low concentration screen), the remaining activity at 1.25 µM was 95.1%. Further, the remaining activity at 3.75 µM in experiment [2] (Well no.=8630, high concentration screen) worked out at 92.7%.
For `C/C(=C\c1csc(C)n1)[C@@H]1C[C@@H]2O[C@]2(C)CCC[C@H](C)[C@H](O)[C@@H](C)C(=O)C(C)(C)[C@@H](O)CC(=O)N1` [Ixabepilone], the remaining activity at 1.25 µM in experiment [1] (Well no.=6934, low concentration screen) worked out at 108%. The remaining activity at 3.75 µM in experiment [2] (Well no.=6934, high concentration screen) was determined as 107%.
Regarding `CC(C)N(CCC(=O)c1ccc2ccccc2c1)Cc1ccccc1` [JAK3 Inhibitor IV], the remaining activity at 1.25 µM in experiment [1] (Well no.=2459, low concentration screen) came to 94%. Besides, the remaining activity at 3.75 µM in experiment [2] (Well no.=2459, high concentration screen) was determined as 93.9%.
For `CC(C)(C)c1nc2c3cc[nH]c(=O)c3c3cc(F)ccc3c2[nH]1` [JAK Inhibitor I], in experiment [1] (Well no.=2455, low concentration screen), the remaining activity at 1.25 µM stood at 101%. In experiment [2] (Well no.=2455, high concentration screen), the remaining activity at 3.75 µM amounted to 103%.
Regarding `CC(C)[C@H](N=C(NS(=O)(=O)c1ccc(Cl)cc1)N1C[C@H](c2ccccc2)C(c2ccc(Cl)cc2)=N1)C(N)=O` [JD-5037], the remaining activity at 1.25 µM in experiment [1] (Well no.=8487, low concentration screen) is 97.2%. The remaining activity at 3.75 µM in experiment [2] (Well no.=8487, high concentration screen) turned out to be 82.1%.
Turning to `CC(C)[C@@H](CN1CC[C@@](C)(c2cccc(O)c2)[C@@H](C)C1)NC(=O)[C@H]1Cc2ccc(O)cc2CN1` [JDTic (dihydrochloride)], in experiment [1] (Well no.=7139, low concentration screen), the remaining activity at 1.25 µM was 99.3%. For the same compound, in experiment [2] (Well no.=7139, high concentration screen), the remaining activity at 3.75 µM came out at 97%.
Regarding `Cc1ccc2c(c1)C(N1CCN(C)CC1)=Nc1cccnc1N2` [JL-18], in experiment [1] (Well no.=781, low concentration screen), the remaining activity at 1.25 µM is 107%. Moreover, the remaining activity at 3.75 µM in experiment [2] (Well no.=781, high concentration screen) is 103%.
On to `CO[C@H]1CC[C@@H](C(=O)c2ccc3nc4c(cc3c2)CCCO4)CC1` [JNJ16259685], for which the remaining activity at 1.25 µM in experiment [1] (Well no.=6955, low concentration screen) turned out to be 100%. Also, the remaining activity at 3.75 µM in experiment [2] (Well no.=6955, high concentration screen) came out at 102%.
`Cn1cc(-c2ccc3nnc(C(F)(F)c4ccc5ncccc5c4)n3n2)cn1` [JNJ38877605]: the remaining activity at 1.25 µM in experiment [1] (Well no.=2887, low concentration screen) worked out at 101%. In experiment [2] (Well no.=2887, high concentration screen), the remaining activity at 3.75 µM turned out to be 102%.
Turning to `O=C(Nc1ccccc1)N1CCN(c2nc(-c3ccccc3)ns2)CC1` [JNJ 1661010], the remaining activity at 1.25 µM in experiment [1] (Well no.=5167, low concentration screen) came to 98.1%. Further, in experiment [2] (Well no.=5167, high concentration screen), the remaining activity at 3.75 µM was determined as 104%.
With `Nc1nc(Nc2ccc(S(N)(=O)=O)cc2)nn1C(=O)c1c(F)cccc1F` [JNJ-7706621], in experiment [1] (Well no.=8260, low concentration screen), the remaining activity at 1.25 µM was 91.9%. Further, the remaining activity at 3.75 µM in experiment [2] (Well no.=8260, high concentration screen) came to 92%.
Turning to `CN1CCN(C(=O)c2cc3cc(Cl)ccc3[nH]2)CC1` [JNJ-7777120], the remaining activity at 1.25 µM in experiment [1] (Well no.=5217, low concentration screen) amounted to 101%; in experiment [1] (Well no.=6949, low concentration screen), 103%. The remaining activity at 3.75 µM in experiment [2] (Well no.=5217, high concentration screen) was determined as 104%; in experiment [2] (Well no.=6949, high concentration screen) it was 96%.
Turning to `Cn1cc(CNCC2CCN(c3ncc(C(=O)NO)cn3)CC2)c2ccccc21` [JNJ-26481585], in experiment [1] (Well no.=5224, low concentration screen), the remaining activity at 1.25 µM amounted to 98.6%. The remaining activity at 3.75 µM in experiment [2] (Well no.=5224, high concentration screen) is 98.4%.
In the case of `C[C@H](NC(=O)CNC(=O)c1cccc(Cl)c1)c1ccccc1` [JNJ-63533054], the remaining activity at 1.25 µM in experiment [1] (Well no.=8047, low concentration screen) turned out to be 98.3%. Also, in experiment [2] (Well no.=8047, high concentration screen), the remaining activity at 3.75 µM was 102%.
Regarding `N#Cc1c(NC(=O)c2cccc3ccccc23)sc2c1CCCC2` [JNK Inhibitor IX], the remaining activity at 1.25 µM in experiment [1] (Well no.=2518, low concentration screen) came out at 99.9%. The remaining activity at 3.75 µM in experiment [2] (Well no.=2518, high concentration screen) was determined as 103%.
On to `CCOc1nc(NC(=O)Cc2cc(OC)ccc2OC)cc(N)c1C#N` [JNK Inhibitor VIII], for which, in experiment [1] (Well no.=2550, low concentration screen), the remaining activity at 1.25 µM turned out to be 99.5%. For the same compound, the remaining activity at 3.75 µM in experiment [2] (Well no.=2550, high concentration screen) is 100%.
As to `Cn1nc2c3c(cccc31)C(=O)c1ccccc1-2` [JNK Inhibitor, Negative Control], in experiment [1] (Well no.=2514, low concentration screen), the remaining activity at 1.25 µM came out at 91%. Besides, the remaining activity at 3.75 µM in experiment [2] (Well no.=2514, high concentration screen) amounted to 92.4%.
Turning to `CCc1ccc(OCc2ccccc2C(=O)Nc2ccc3nc(C)cc(N)c3c2)cc1` [JTC-801], the remaining activity at 1.25 µM in experiment [1] (Well no.=5025, low concentration screen) amounted to 98.2%; in experiment [1] (Well no.=7002, low concentration screen), 95.7%. Besides, the remaining activity at 3.75 µM in experiment [2] (Well no.=5025, high concentration screen) is 98.7%; in experiment [2] (Well no.=7002, high concentration screen) it was 91.5%.
As to `CCCn1c(C)c(C(=O)c2cccc3ccccc23)c2ccccc21` [JWH-015], the remaining activity at 1.25 µM in experiment [1] was 92.6%. For the same compound, the remaining activity at 3.75 µM in experiment [2] stood at 93.1%.
Regarding `CCCC(C)(C)c1ccc2c(c1)OC(C)(C)[C@@H]1CC=C(C)C[C@@H]21` [JWH-133], the remaining activity at 1.25 µM in experiment [1] came out at 102%. In experiment [2], the remaining activity at 3.75 µM was found to be 104%.

The values above are taken from paper PMC8286840, “Identifying SARS-CoV-2 antiviral compounds by screening for small molecule inhibitors of Nsp3 papain-like protease” (Biochemical Journal, 2021).
